Legend:
[1] = cited from earlier work
[2] = tested on: HA accumulation in the pancreatic islets; test: Immuno-staining for HA in pancreatic islets after 4-MU treatment; assay type: in vivo, mouse; details: DORmO mice, 8 week start treatment group, versus DORmO mice on control chow
Description: HA accumulation in the pancreatic islets was investigated through immuno-staining after 4-MU treatment in a few mice of the 8 week start treatment group. […] The pictures in the upper row show representative images of a HA staining in pancreatic islets in control animals treated with normal chow, left column, or treated with 4-MU, right column.

[3] = tested on: insulin in pancreatic islets; test: Immuno-staining for insulin in pancreatic islets after 4-MU treatment; assay type: in vivo, mouse; details: DORmO mice treated with 4-MU, 8 week start treatment group
Description: The animals stained for HA were also stained for insulin. […] The pictures in the upper row show representative images of insulin staining in pancreatic islets in control animals treated with normal chow, (left column) or treated with 4-MU (right column).

[4] = tested on: DORmO mice; test: Blood glucose in DORmO double transgenic mouse model of autoimmune diabetes, 4-MU in chow; assay type: in vivo
Description: To determine that HA accumulates in the pancreatic islets and creates a permissive environment for autoimmune attacks during autoimmune diabetes disease progression, the DORmO double transgenic mouse model of autoimmune diabetes was used. DORmO mice predictably develop autoimmune diabetes because they are bred to have both a target antigen on their insulin producing beta-cells as well as an immune system that specifically recognizes that antigen. DORmO mice are the result of a cross between RIPmOVA mice (a strain that carries a gene specific for hen egg ovalbumin (OVA) that is only expressed on beta-cells, emulating the auto-antigen) and DO11.10 mice (a strain that carries a T-cell receptor transgene specific for OVA, emulating auto-reactive CD4+ T cells). […] A group of control mice was treated with 4-MU as well in order to see if 4-MU alters the blood glucose levels of those mice. […] The DORmO mice on control chow had to be sacrificed after getting diabetic according to the animal protocol. Another treatment group was established where the 4-MU treatment started at 12 weeks of age when the DORmO mice were already diabetic. […] The animals stained for HA were also stained for insulin. […] The pictures in the upper row show representative images of insulin staining in pancreatic islets in control animals treated with normal chow, (left column) or treated with 4-MU (right column).

[5] = tested on: FoxP3+ T-cells; test: FoxP3+ T-cell numbers in lymphatic tissue after 4-MU treatment; assay type: in vivo, mouse
[6] = tested on: cells infiltrating into the spinal cord; test: Immunologic profile of cells infiltrating the spinal cord at peak of EAE; assay type: in vivo, mouse; details: for CD4+ T-cell infiltration into the spinal cord: EAE day 22 after immunization
Experimental: The effect of 4-MU treatment on EAE pathogenesis was analyzed by evaluating the immunologic profile of cells infiltrating into the spinal cord at the peak of disease (day 22 after immunization).
Further, considering the differential pathologic roles that Th1 and Th17 cells have in EAE (Axtell, R. C., et al., Clin. Rev. Allergy Immunol. 44, 114-120 (2013); Lowther, D. E., et al., Acta Neuropathol. 126, 501-515 (2013)), this change in the local Th cell profile can contribute to the prevention of the autoimmune attack on myelin.

[7] = tested on: CD4+ CD25+ cells; test: CD25+ of CD4+ T-cells in spleen and lymph nodes of EAE mice; assay type: in vivo, mouse; details: EAE subjects, 4-MU started before immunization (pretreatment protocol)
[8] = tested on: MOG35-55 peptide-induced EAE in C57B1/6 mice; test: MOG35-55 peptide-induced EAE mouse model of MS, EAE incidence and score; assay type: in vivo; details: for incidence of EAE: control 9/10
Description: FIGS. 12A, 12B, and 12C graphically illustrate the mean EAE score as a function of days post induction in subjects treated with 4-MU according to a pretreatment, treatment, or intervention protocol, respectively.
For FIGS. 12A, 12B, and 12C, *P<0.05, ** P<0.01, ***P<0.001, Mann-Whitney.

[9] = EAE mice after 4-MU treatment, FIG. 13B
[10] = EAE mice, 4-MU treatment, FIG. 13A

Cc1cc(=O)oc2cc(O)ccc12 [4-MU, 4-methylumbelliferone]
toxicity ([1]; general statement): no known toxicity
safety profile in clinical use ([1]; human use in Europe and Asia (biliary spasm, gallstones)): excellent safety profile
HA accumulation in pancreatic islets (immuno-staining) [2]: significant decrease
insulin in the islets (immuno-staining) [3]: still had a significant amount of insulin in the islets
normo-glycemia ([4]; DORmO mice, 4-MU added to chow): restored normo-glycemia
blood glucose level / development of diabetes ([4]; DORmO mice, 4-MU in chow starting at 5 weeks of age): not to become diabetic
blood glucose level ([4]; DORmO mice, 4-MU treatment starting at 8 weeks of age, at 23 weeks of age): normal blood glucose level
blood glucose levels ([4]; already diabetic DORmO mice, 4-MU starting at 12 weeks of age, after 1 week of treatment): decrease of the blood glucose levels
FoxP3+ T-cells in spleen, MLN, ILN and PLN ([5]; D0.11 mice following OVA immunization, FIG. 13D): increase in FoxP3+ T-cells
general immunosuppression ([5]; D0.11 mice on 4-MU, data not shown): did not induce a general immunosuppression
numbers of FoxP3+ T-cells in lymphatic tissue ([5]; healthy mice, data not shown): significantly increased
CD4+ T-cell infiltration into the spinal cord ([6]; intervention treatment): moderately reduced
CD4+ T-cell infiltration into the spinal cord ([6]; pretreatment and early treatment with 4-MU): substantially reduced
IFN-γ producing Th1 populations among CD4+ T-cells in the CNS [6, 9]: mainly reduced
IL-17 producing Th17 population among CD4+ T-cells in the CNS [6, 9]: less affected
total lymphocyte counts in lymphatic organs (generalized immunosuppression) ([6]; EAE mice on 4-MU): unchanged
infiltration of CD8+ and CD4+ lymphocytes and macrophages [6, 10]: reduced infiltration
total numbers of cell infiltrates in spinal cord [6, 10]: lower total numbers of cell infiltrates
number of CD4+ CD25+ cells in the spleen and lymph nodes [7]: increased number
EAE disease severity (mean EAE score) ([8]; intervention protocol, 4-MU after the onset of neurological symptoms): significantly ameliorated disease as early as 3 days after start of treatment
incidence of EAE ([8]; pretreatment protocol, 4-MU 5% w/w in chow from 4 days before immunization): 1/7
incidence of EAE ([8]; treatment protocol, 4-MU 5% w/w in chow after immunization boost on day 2, before symptoms): 2/10

— patent US20200101042A1, “4-METHYLUMBELLIFERONE TREATMENT FOR IMMUNE MODULATION” (Benaroya Research Institute at Virginia Mason, priority 2013, published 2020)
